Experimental data: US10213434B2, “Use of factor Xa inhibitors for regulating glycemia” (VAIOMER, priority 2015, dated 2019)
Like-named read-outs stand apart in the source and are kept apart here.

Columns and labels:
[1] = low = typically inferior or equal to 20%, cited from earlier work
[2] = tested on: HFD C57/BL6 mice; assay: Fasting glycemia after 4 weeks of oral treatment in high fat diet mice; assay type: in vivo
Description: FIG. 2: NC or HFD C57/BL6 mice were gavaged daily with saline or one of three doses of Rivaroxaban (1, 2.5 or 5; n=5 per group) for 4 weeks. Histograms show fasting glycemia after 4 weeks of chronic treatment with Rivaroxaban. NC saline: control C57/BL6 mice fed with normal chow and gavaged with saline for 4 weeks. HFD saline: control C57/BL6 mice fed with high fat diet and gavaged with saline for 4 weeks. HFD+X1: C57/BL6 mice fed with high fat diet and gavaged with 1 mg/kg Rivaroxaban for 4 weeks. HFD+X2.5: C57/BL6 mice fed with high fat diet and gavaged with 2.5 mg/kg Rivaroxaban for 4 weeks. HFD+X5: C57/BL6 mice fed with high fat diet and gavaged with 5 mg/kg Rivaroxaban for 4 weeks. Data were analyzed by either one or two-way ANOVA with Tukey's multiple comparison tests and presented as mean±S.E.M. *P<0.05, **P<0.01, ***P<0.001. […]
(§1) An Oral Glucose Tolerance Test (OGTT) was performed on 6-hfasted mice. […] Glycemia was measured with a glucometer (Roche Diagnostics) from blood collected at the tail vein 30 min before the glucose […] and 15, 30, 60, 90 and 120 min after the gavage. The glucose tolerance index was calculated by adding the glycemic values from 30 to 90 min after glucose gavage divided by the corresponding duration.
(§2) After 4 weeks of treatment the inventors measured fasting glycaemia and glucose intolerance (FIGS. 7 and 8).

[3] = tested on: HFD C57/BL6 mice; assay: Oral glucose tolerance test (OGTT) after 4 weeks of oral treatment in high fat diet mice; assay type: in vivo
Description: FIG. 3: NC or HFD C57/BL6 mice were gavaged daily with saline or one of three doses of Rivaroxaban (1, 2.5 or 5; n=5 per group) for 4 weeks. Graphs show oral glucose tolerance test (OGTT) (1.5 g/kg) after 4 weeks of chronic treatment with Rivaroxaban. NC-NaCl: control C57/BL6 mice fed with normal chow and gavaged with saline for 4 weeks. HFD-NaCl: control C57/BL6 mice fed with high fat diet and gavaged with saline for 4 weeks. HFD-X1 mg/kg: C57/BL6 mice fed with high fat diet and gavaged with 1 mg/kg Rivaroxaban for 4 weeks. HFD-X2.5 mg/kg: C57/BL6 mice fed with high fat diet and gavaged with 2.5 mg/kg Rivaroxaban for 4 weeks. HFD-X5 mg/kg: C57/BL6 mice fed with high fat diet and gavaged with 5 mg/kg Rivaroxaban for 4 weeks.
FIG. 4: NC or HFD C57/BL6 mice were gavaged daily with saline or one of […] of Rivaroxaban (1, 2.5 or 5; n=5 per group) for 4 weeks. Histograms show glucose intolerance corresponding index (μM/min) from 30 min to 90 min after glucose administration. NC saline: control C57/BL6 mice fed with normal chow and gavaged with saline for 4 weeks. HFD saline: control C57/BL6 mice fed with high fat diet and gavaged with saline for 4 weeks. HFD+X1: C57/BL6 mice fed with high fat diet and gavaged with 1 mg/kg Rivaroxaban for 4 weeks. HFD+X2.5: C57/BL6 mice fed with high fat diet and gavaged with 2.5 mg/kg Rivaroxaban for 4 weeks. HFD+X5: C57/BL6 mice fed with high fat diet and gavaged with 5 mg/kg Rivaroxaban for 4 weeks. Data were analyzed by either one or two-way ANOVA with Tukey's multiple comparison tests and presented as mean±S.E.M. *P<0.05, **P<0.01, ***P<0.001.
FIG. 5: NC or HFD C57/BL6 mice were gavaged daily with saline or one of […] of Rivaroxaban (1, 2.5 or 5; n=5 per group) for 4 weeks. Histograms show diabetes and glucose intolerance corresponding index (μM/min) from 30 min before to 90 min after glucose administration. NC saline: control C57/BL6 mice fed with normal chow and gavaged with saline for 4 weeks. HFD saline: control C57/BL6 mice fed with high fat diet and gavaged with saline for 4 weeks. […] Data were analyzed by either one or two-way ANOVA with Tukey's multiple comparison tests and presented as mean±S.E.M. *P<0.05, **P<0.01, ***P<0.001. […]
as §1, §2

[4] = tested on: HFD mice; assay: Bacterial translocation: 16S rDNA copies in mesenteric adipose tissue of HFD mice; assay type: in vivo; details: Rivaroxaban 0.2, 0.5 and 1 mg/kg oral gavage daily, 4 weeks, vs non-treated HFD mice, FIG. 6
Description: To explore whether intestinal FXa inhibition regulates intestinal permeability the inventors have treated HFD mice daily during 4 weeks with 3 different doses of Rivaroxaban by oral gavage. The inventors chose low Rivaroxaban concentrations (0.2, 0.5 and 1 mg/kg) to have an intestinal effect only and avoid systemic anti-coagulation. After 4 weeks of treatment the number of 16S rDNA copies was measured in mesenteric adipose tissue in order to evaluate bacterial translocation.

[5] = tested on: mouse model of diabetes; details: administered into a mouse model of diabetes; cited from earlier work

Molecule: CO[C@H]1O[C@H](COS(=O)(=O)O)[C@@H](O[C@@H]2O[C@@H](C(=O)O)[C@@H](O[C@H]3O[C@H](COS(=O)(=O)O)[C@@H](O[C@@H]4O[C@H](C(=O)O)[C@@H](O[C@H]5O[C@H](COS(=O)(=O)O)[C@@H](OC)[C@H](OC)[C@H]5NC(=O)CCCCCNC(=O)CCCC[C@@H]5SC[C@@H]6NC(=O)N[C@@H]65)[C@H](OC)[C@H]4OC)[C@H](OS(=O)(=O)O)[C@H]3OS(=O)(=O)O)[C@H](OC)[C@H]2OC)[C@H](OS(=O)(=O)O)[C@H]1OS(=O)(=O)O [idrabiotaparinux]
- oral bioavailability [1]: low oral bioavailability

Molecule: enoxaparin
- oral bioavailability [1]: low oral bioavailability

Molecule: O=C(NC[C@H]1CN(c2ccc(N3CCOCC3=O)cc2)C(=O)O1)c1ccc(Cl)s1 [Rivaroxaban, rivaroxaban]
- fasting glycemia (increase induced by high fat diet) ([2]; HFD C57/BL6 mice, Rivaroxaban 1, 2.5 or 5 mg/kg oral gavage, FIG. 2): abolished
- glucose intolerance index (30 min to 90 min after glucose administration), HFD-induced increase ([3]; 5 mg/kg Rivaroxaban oral gavage, FIG. 4): reduced
- diabetes and glucose intolerance index (30 min before to 90 min after glucose administration) ([3]; 5 mg/kg Rivaroxaban oral gavage, vs HFD saline mice, FIG. 5): significant reduction
- blood glucose concentration following oral glucose challenge (OGTT) ([3]; oral Rivaroxaban 1, 2.5 or 5 mg/kg, vs HFD mice gavaged with saline, glucose 1.5 g/kg, FIG. 3): reduced
- bacterial translocation (number of 16S rDNA copies in mesenteric adipose tissue) [4]: reduce bacterial translocation
- antithrombotic effects [5]: displayed antithrombotic effects

Molecule: CC(=N)N1CC[C@H](Oc2ccc([C@H](Cc3ccc4ccc(C(=N)N)cc4c3)C(=O)O)cc2)C1 [DX-9065]
- oral bioavailability [1]: low oral bioavailability

Molecule: COC(=O)[C@H](Cc1cccc(C(=N)N)c1)[C@@H](C)NC(=O)c1ccc(-c2cc[n+]([O-])cc2)cc1 [Otamixaban, otamixaban]
- fasting glycaemia ([2]; HFD mice, Otamixaban 1 and 5 mg/kg oral gavage, FIG. 7): reduces fasting glycaemia
- glucose intolerance (OGTT) ([3]; Otamixaban 1 and 5 mg/kg oral gavage, FIG. 8): reduces glucose intolerance
- oral bioavailability [1]: low bioavailability
- oral bioavailability ([1]; listed as otamixaban): low oral bioavailability

Molecule: CO[C@H]1O[C@H](COS(=O)(=O)O)[C@@H](O[C@@H]2O[C@@H](C(=O)O)[C@@H](O[C@H]3O[C@H](COS(=O)(=O)O)[C@@H](O[C@@H]4O[C@H](C(=O)O)[C@@H](O[C@H]5O[C@H](COS(=O)(=O)O)[C@@H](OC)[C@H](OC)[C@H]5OC)[C@H](OC)[C@H]4OC)[C@H](OS(=O)(=O)O)[C@H]3OS(=O)(=O)O)[C@H](OC)[C@H]2OC)[C@H](OS(=O)(=O)O)[C@H]1OS(=O)(=O)O [idraparinux]
- oral bioavailability [1]: low oral bioavailability
